The results in this text go back to ChEMBL document CHEMBL2401712, “Fused thiazolyl alkynes as potent mGlu5 receptor positive allosteric modulators” (Bioorg Med Chem Lett, 2013).

Series [1] deals with Liver microsomes. Put plainly: Metabolic stability in human liver microsomes assessed as GSH adduct formation after 60 mins by LC-MS/MS analysis. It is filed as ADME, Microsome. Conditions: 1 h.
Series [2] has as its target CYP3A4 (Homo sapiens, UniProt P08684). Kind of series: Inhibition of CYP3A4 (unknown origin) at 5 uM relative to control. Type of series: ADME.
For series [3], the target named is CYP2D6 (Homo sapiens, UniProt P10635). Put plainly: Inhibition of CYP2D6 (unknown origin) at 5 uM relative to control. Type of series: ADME.
Chain of CYP2D6 (P10635 whole entry): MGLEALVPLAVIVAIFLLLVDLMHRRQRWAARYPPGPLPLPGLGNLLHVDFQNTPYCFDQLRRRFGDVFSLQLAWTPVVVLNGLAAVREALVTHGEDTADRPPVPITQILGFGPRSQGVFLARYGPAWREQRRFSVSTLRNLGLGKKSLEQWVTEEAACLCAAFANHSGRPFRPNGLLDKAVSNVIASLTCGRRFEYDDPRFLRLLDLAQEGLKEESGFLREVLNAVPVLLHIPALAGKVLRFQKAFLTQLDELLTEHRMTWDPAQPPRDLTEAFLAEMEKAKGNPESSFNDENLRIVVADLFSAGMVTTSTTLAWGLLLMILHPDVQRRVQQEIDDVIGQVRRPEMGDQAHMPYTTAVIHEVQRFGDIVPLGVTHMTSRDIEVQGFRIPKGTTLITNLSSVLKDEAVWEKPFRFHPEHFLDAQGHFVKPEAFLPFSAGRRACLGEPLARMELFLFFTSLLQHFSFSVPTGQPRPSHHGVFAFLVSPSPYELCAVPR
The nature of series [4]: Plasma protein binding in human. Type of series: ADME, cell-free. Conditions: read-out: PPB (converted).
The nature of series [5]: Plasma protein binding in rat. It is filed as ADME, cell-free. The note with it: read-out: PPB (converted).
The test system of series [6] is Liver microsomes. Put plainly: Intrinsic clearance in rat liver microsomes. Type of series: ADME, Microsome. (In general: Liver microsomes are vesicles of endoplasmic reticulum, rich in cytochrome P450 enzymes.)
The subject of series [7] is Liver microsomes. Kind of series: Intrinsic clearance in human liver microsomes. Type of series: ADME, Microsome. Further details: unit not given here.
Series [8] deals with T1, Metabotropic glutamate receptor 5 (Homo sapiens, UniProt P41594). Kind of series: Negative allosteric modulation of human mGlu5 receptor expressed in HEK293 cells assessed as inhibition of L-glutamate-induced activity after 1 hr by FLIPR assay. It is filed as cell-based.
Target sequence in this assay (P41594 whole entry): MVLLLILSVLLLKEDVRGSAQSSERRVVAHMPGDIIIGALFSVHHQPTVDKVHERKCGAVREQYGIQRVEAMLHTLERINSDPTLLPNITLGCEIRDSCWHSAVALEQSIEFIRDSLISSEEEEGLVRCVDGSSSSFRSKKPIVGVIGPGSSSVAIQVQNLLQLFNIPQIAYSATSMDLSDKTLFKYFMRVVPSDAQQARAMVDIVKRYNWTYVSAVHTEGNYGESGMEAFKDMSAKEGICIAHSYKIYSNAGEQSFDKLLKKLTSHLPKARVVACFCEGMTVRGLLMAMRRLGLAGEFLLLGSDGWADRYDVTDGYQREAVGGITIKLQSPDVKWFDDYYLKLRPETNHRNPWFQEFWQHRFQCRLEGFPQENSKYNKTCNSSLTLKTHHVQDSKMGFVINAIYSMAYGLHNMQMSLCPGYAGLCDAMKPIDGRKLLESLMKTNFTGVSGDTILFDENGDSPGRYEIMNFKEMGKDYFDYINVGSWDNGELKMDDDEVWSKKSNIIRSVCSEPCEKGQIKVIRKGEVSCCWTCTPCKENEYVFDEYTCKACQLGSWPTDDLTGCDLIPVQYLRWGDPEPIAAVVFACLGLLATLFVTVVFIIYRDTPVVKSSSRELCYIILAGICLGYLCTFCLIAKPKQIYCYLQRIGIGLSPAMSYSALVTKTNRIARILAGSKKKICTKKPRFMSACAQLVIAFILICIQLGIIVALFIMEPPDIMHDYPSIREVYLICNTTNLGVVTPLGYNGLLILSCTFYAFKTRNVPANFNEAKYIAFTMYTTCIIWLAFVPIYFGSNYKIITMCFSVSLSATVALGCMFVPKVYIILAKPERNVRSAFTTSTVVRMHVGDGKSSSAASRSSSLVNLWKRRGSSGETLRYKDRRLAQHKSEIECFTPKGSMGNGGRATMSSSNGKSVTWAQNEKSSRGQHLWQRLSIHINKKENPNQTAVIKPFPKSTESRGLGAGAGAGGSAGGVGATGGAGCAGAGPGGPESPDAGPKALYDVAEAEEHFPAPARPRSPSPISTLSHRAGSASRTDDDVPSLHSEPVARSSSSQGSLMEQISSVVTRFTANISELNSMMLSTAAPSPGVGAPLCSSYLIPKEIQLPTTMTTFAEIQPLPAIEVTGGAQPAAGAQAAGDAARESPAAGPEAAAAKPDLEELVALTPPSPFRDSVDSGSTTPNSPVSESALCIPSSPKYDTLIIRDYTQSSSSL
The target in series [9] is T1, Metabotropic glutamate receptor 5. Kind of series: Positive allosteric modulation of human mGlu5 receptor expressed in HEK293 cells assessed as potentiation of L-glutamate-induced activity after 1 hr by FLIPR assay relative to control. It is filed as cell-based.
Target sequence in this assay (P41594 21-1212 limits assumed): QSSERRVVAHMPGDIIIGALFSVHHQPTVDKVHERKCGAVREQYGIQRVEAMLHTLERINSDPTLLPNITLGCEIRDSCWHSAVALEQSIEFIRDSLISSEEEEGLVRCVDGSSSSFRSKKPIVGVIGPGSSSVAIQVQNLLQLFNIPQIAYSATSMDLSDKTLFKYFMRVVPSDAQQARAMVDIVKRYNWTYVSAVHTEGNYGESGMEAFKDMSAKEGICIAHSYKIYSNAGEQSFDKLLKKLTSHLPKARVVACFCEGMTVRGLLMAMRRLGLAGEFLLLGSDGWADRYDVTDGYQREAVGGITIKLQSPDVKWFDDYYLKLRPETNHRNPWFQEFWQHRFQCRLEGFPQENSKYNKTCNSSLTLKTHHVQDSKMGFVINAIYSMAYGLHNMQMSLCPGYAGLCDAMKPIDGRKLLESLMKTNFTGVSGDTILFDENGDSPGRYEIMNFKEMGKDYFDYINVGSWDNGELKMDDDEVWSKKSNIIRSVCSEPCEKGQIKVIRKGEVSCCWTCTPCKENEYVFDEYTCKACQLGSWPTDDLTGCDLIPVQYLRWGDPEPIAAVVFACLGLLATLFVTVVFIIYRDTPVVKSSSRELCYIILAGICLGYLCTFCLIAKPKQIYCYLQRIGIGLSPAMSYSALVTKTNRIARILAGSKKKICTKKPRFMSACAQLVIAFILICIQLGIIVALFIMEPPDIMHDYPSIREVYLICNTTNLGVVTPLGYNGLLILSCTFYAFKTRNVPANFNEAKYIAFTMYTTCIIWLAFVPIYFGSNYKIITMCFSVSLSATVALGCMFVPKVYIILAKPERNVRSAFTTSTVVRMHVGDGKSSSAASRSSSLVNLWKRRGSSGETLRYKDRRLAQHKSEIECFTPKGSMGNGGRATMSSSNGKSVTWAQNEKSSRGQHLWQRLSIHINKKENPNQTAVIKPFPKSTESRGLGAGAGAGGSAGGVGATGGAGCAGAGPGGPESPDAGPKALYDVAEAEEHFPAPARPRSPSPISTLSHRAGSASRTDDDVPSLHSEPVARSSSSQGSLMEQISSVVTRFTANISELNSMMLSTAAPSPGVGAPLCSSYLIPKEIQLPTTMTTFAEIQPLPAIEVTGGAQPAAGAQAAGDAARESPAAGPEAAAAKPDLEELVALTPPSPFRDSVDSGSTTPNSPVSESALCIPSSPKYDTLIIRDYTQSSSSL
For series [10] the target is unchanged. Kind of series: Positive allosteric modulation of human mGlu5 receptor expressed in HEK293 cells assessed as potentiation of L-glutamate-induced activity after 1 hr by FLIPR assay. It is filed as cell-based.
Target sequence in this assay (P41594 whole entry): as the sequence (P41594 whole entry) above
For series [11] the target is unchanged. Kind of series: Negative allosteric modulation of human mGlu5 receptor expressed in HEK293 cells assessed as inhibition of L-glutamate-induced activity after 1 hr by FLIPR assay relative to control. It is filed as cell-based. Further details: concentration or dose not given beside the values. Conditions: concentration not given here.
Target sequence in this assay (P41594 21-1212 limits assumed): as the sequence (P41594 21-1212 limits assumed) above
Series [12] shares this target. Put plainly: Positive allosteric modulation of mGlu5 receptor (unknown origin) relative to control.
Target sequence in this assay (P41594 21-1212 limits assumed): as above
Series [13] shares this target. Kind of series: Positive allosteric modulation of mGlu5 receptor (unknown origin).
Target sequence in this assay (P41594 whole entry): as the sequence (P41594 whole entry) above

Chain of CYP3A4 (P08684 whole entry): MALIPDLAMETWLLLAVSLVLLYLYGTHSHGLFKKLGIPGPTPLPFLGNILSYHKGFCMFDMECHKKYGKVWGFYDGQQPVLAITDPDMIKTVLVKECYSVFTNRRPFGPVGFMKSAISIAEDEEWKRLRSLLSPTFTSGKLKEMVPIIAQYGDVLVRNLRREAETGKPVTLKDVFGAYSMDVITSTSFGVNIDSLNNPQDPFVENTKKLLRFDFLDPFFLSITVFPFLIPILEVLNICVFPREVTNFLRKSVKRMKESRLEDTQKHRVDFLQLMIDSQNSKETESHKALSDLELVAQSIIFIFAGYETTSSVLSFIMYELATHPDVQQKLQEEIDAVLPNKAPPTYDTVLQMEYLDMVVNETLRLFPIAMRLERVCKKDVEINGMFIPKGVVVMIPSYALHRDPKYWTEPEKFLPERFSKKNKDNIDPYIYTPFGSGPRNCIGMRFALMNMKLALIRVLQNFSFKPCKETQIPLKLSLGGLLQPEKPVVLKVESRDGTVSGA

A word on the inhibition: it is the drop in the measured response relative to a control, in per cent. The IC50 is the point on the concentration scale where inhibition reaches its midpoint. Broadly, the Emax is the maximal effect, on the per cent scale that the assay sets. Usually EC50 stands for the concentration giving half of the maximal effect. For `CN1CCc2nc(C#Cc3ccccc3)sc2C1=O`, the Stability entry in [1] is “Unstable”. Besides, the inhibition at 5 µM in series [2] and in series [3] was less than 40% each time. The figures for the fraction unbound in series [4] and in [5] were 0.033 and 0.049, respectively. Further, the CLH in series [6] is 52 mL/min; in series [7], 3.1. Besides, the half-maximal inhibitory concentration (IC50) in series [8] is greater than 10000 nM. For the same compound, the Emax in [9] amounted to 180%. Further, in [10], the concentration for a half-maximal effect (EC50) stood at 2.4 nM.

With `O=C(C1CC(F)(F)C1)N1CCc2nc(C#Cc3ccccc3)sc2C1`, the Stability entry in series [1] is given as “Stable”. The inhibition at 5 µM in [2] and in [3] was less than 40% in each case. In addition, the fraction unbound in series [4] was 0.011; in series [5] it was 0.012. Also, the CLH in series [6] was 7.6 mL/min; in series [7], 1.1. Further, the inhibition in series [11] was 52%. Also, the IC50 in series [8] was greater than 10000 nM. In addition, the Emax in [9] turned out to be 89%. Also, the EC50 in [10] came to 18 nM.

As for `O=C(N1CCc2nc(C#Cc3ccccc3)sc2C1)N1CC(F)(F)C1`, the inhibition in series [11] was -9%. For the same compound, the IC50 in [8] was greater than 10000 nM. In series [9], the Emax was found to be 94%. In addition, in [10], the EC50 came to 26 nM.

For `Fc1cccc(C#Cc2nc3c(s2)CN(C2CCCC2)CC3)c1`, the inhibition in [11] is 94%. Moreover, in [8], the IC50 was determined as 640 nM. Besides, the Emax in series [9] was -44%. In addition, in [10], the EC50 was greater than 10000 nM.

Regarding `O=C(C1CCC1)N1CCc2nc(C#Cc3ccccc3)sc2C1`, the inhibition in [11] amounted to 81%. Besides, in series [8], the IC50 turned out to be 370 nM. For the same compound, in series [9], the Emax worked out at 3%. For the same compound, the concentration giving a half-maximal response (EC50) in series [10] is greater than 10000 nM.

For the compound `O=C(N1CCc2nc(C#Cc3ccccc3)sc2C1)N1CC(F)C1`, the inhibition in series [11] is 9%. Besides, in series [8], the IC50 was greater than 10000 nM. In addition, the Emax in series [9] stood at 27%. Besides, in series [10], the EC50 is greater than 10000 nM.

As to `O=C(N1CCCC1)N1CCc2nc(C#Cc3ccccc3)sc2C1`, the inhibition at 5 µM in series [2] and in series [3] was less than 40% each time. Besides, the values for the fraction unbound in [4] and in series [5] were 0.024 and 0.047, respectively. Further, the CLH in series [6] is 49 mL/min; in series [7], 1. Moreover, the IC50 in [8] was greater than 10000 nM. The Emax in [9] was 180%. Moreover, the concentration for a half-maximal effect (EC50) in [10] turned out to be 9.8 nM.

Take `CN1CCc2nc(C#Cc3ccccc3)sc2C1`: the Stability entry in [1] is listed as “Stable”. Besides, the inhibition at 5 µM in series [2] and in [3] was less than 40% each time. Further, the fraction unbound in series [4] is 0.035; in series [5], 0.061. For the same compound, the values for the CLH in series [6] and in [7] were 88 mL/min and 4.9, respectively. Besides, the 50% inhibitory concentration (IC50) in [8] is greater than 10000 nM. The Emax in [9] worked out at 110%. The half-maximal effective concentration (EC50) in series [10] amounted to 34 nM.

As to `C(#Cc1nc2c(s1)CN(C1CCCCC1)CC2)c1ccccc1`, the inhibition in series [11] is 1%. In series [8], the IC50 is greater than 10000 nM. In addition, in [9], the Emax is 19%. The EC50 in series [10] is greater than 10000 nM.

`O=C(N1CCC(F)(F)CC1)N1CCc2nc(C#Cc3ccccc3)sc2C1`: in series [11], the inhibition is 3%. Moreover, in series [8], the IC50 is greater than 10000 nM. Besides, in series [9], the Emax came out at 100%. For the same compound, the EC50 in series [10] turned out to be 72 nM.

Take `O=C([C@H]1CC2CCC1C2)N1CCc2nc(C#Cc3ccccc3)sc2C1` (some centres undefined): the inhibition in series [11] amounted to 8%. In addition, the 50% inhibitory concentration (IC50) in [8] was greater than 10000 nM. Also, in series [9], the Emax is 280%. The EC50 in [10] was 18 nM.

Regarding `CC1CCC(C(=O)N2CCc3nc(C#Cc4ccccc4)sc3C2)CC1` (centres undefined), the inhibition in series [11] amounted to 0%. Further, in [8], the IC50 is greater than 10000 nM. In addition, the Emax in series [9] amounted to 80%. Moreover, the EC50 in [10] turned out to be 190 nM.

Turning to `Fc1cccc(C#Cc2nc3c(s2)CN(C2CCC2)CC3)c1`, in series [11], the inhibition is 91%. For the same compound, the half-maximal inhibitory concentration (IC50) in [8] was determined as 200 nM. The Emax in [9] is -40%. The EC50 in series [10] is greater than 10000 nM.

Consider `O=C1c2sc(C#Cc3ccccc3)nc2CN1C1CC1`, for which the inhibition in [11] is 59%. Also, the half-inhibitory concentration (IC50) in series [8] was 23 nM. Further, the Emax in [9] was found to be 11%. In [10], the EC50 is greater than 10000 nM.

In the case of `O=C(c1cnc(C#Cc2ccccc2)s1)N1CCCCC1`, the Emax in series [12] was found to be 167%. The EC50 in [13] came to 6.1 nM. Further, the Stability result in series [1] was “Unstable”.

On to `O=C(C1CC(F)C1)N1CCc2nc(C#Cc3ccccc3)sc2C1` (centres undefined), for which the inhibition in series [11] is 38%. Besides, the half-maximal inhibitory concentration (IC50) in series [8] is greater than 10000 nM. Further, the Emax in series [9] came to 61%. Besides, the 50% effective concentration (EC50) in series [10] was 85 nM.

Consider `O=C(c1cccc(C(F)(F)F)c1)N1CCc2nc(C#Cc3ccccc3)sc2C1`, for which, in series [11], the inhibition turned out to be 12%. The IC50 in [8] was greater than 10000 nM. For the same compound, in [9], the Emax amounted to 170%. In addition, in series [10], the EC50 was determined as 11 nM.

Take `N#Cc1cccc(C(=O)N2CCc3nc(C#Cc4ccccc4)sc3C2)c1`: in series [11], the inhibition stood at 16%. Also, the 50% inhibitory concentration (IC50) in series [8] is greater than 10000 nM. Further, the Emax in series [9] is 150%. Moreover, in series [10], the EC50 amounted to 71 nM.

As to `COc1cccc(C(=O)N2CCc3nc(C#Cc4ccccc4)sc3C2)c1`, in [11], the inhibition was determined as 6.7%. Moreover, the 50% inhibitory concentration (IC50) in series [8] is greater than 10000 nM. The Emax in series [9] stood at 150%. The EC50 in series [10] came to 29 nM.

In the case of `Cc1cccc(C(=O)N2CCc3nc(C#Cc4ccccc4)sc3C2)n1`, the inhibition in [11] was 19%. Also, in series [8], the IC50 is greater than 10000 nM. In [9], the Emax came to 120%. Besides, in [10], the EC50 amounted to 160 nM.

`O=C(C1CCCC1)N1CCc2nc(C#Cc3ccccc3)sc2C1`: the inhibition in [11] stood at 42%. In series [8], the concentration for half-maximal inhibition (IC50) was greater than 10000 nM. Further, the Emax in series [9] is 280%. Further, in [10], the half-maximal effective concentration (EC50) turned out to be 19 nM.

As for `O=C(N1CCc2nc(C#Cc3ccccc3)sc2C1)N1CCC(F)(F)C1`, the inhibition in series [11] is 26%. Further, in [8], the half-inhibitory concentration (IC50) was greater than 10000 nM. The Emax in series [9] worked out at 170%. For the same compound, the EC50 in series [10] was found to be 53 nM.

For the compound `O=C(c1cccc(Cl)c1)N1CCc2nc(C#Cc3ccccc3)sc2C1`, in series [11], the inhibition stood at 26%. In [8], the half-maximal inhibitory concentration (IC50) was greater than 10000 nM. Moreover, in [9], the Emax stood at 170%. The concentration giving a half-maximal response (EC50) in [10] was 8.7 nM.

For `O=C(C1CCOC1)N1CCc2nc(C#Cc3ccccc3)sc2C1` (centres undefined), the inhibition in [11] was determined as 45%. Also, the concentration for half-maximal inhibition (IC50) in series [8] was greater than 10000 nM. Moreover, the Emax in series [9] amounted to 96%. Besides, the concentration for a half-maximal effect (EC50) in series [10] turned out to be 130 nM.
